The values below come from patent US10858335B2 (Rigel Pharmaceuticals, Inc., priority 2014, dated 2020).

The experiment deals with GDF8 signaling (p-SMAD-3 (Ser423/425)). The experiment can be described thus: AlphaScreen SureFire SMAD3 (p-Ser423/425) assay, GDF8-stimulated cells (GDF pSMAD). The experiment is classed as cell-based. To be noted: Mus musculus, MPC-11, MPC11; GDF8-stimulated; p-SMAD3 AlphaScreen; read-out: GDF pSMAD (MPC11) (inhibition of GDF8 signaling).
Regarding `Cc1cc(-c2ncc(NCc3cccc4cnccc34)cc2-c2ccc3ncsc3c2)ccc1F` [compound 337, 5-(Benzo[d]thiazol-6-yl)-6-(4-fluoro-3-methylphenyl)-N-(isoquinolin-5-ylmethyl)pyridin-3-amine], the IC50 is 479 nM.
Then `CC(=O)Nc1ccc(CNc2cnc(-c3ccc(F)c(C)c3)c(-c3ccc4ncsc4c3)c2)cc1` [compound 338, N-(4-(((5-(Benzo[d]thiazol-6-yl)-6-(4-fluoro-3-methylphenyl)pyridin-3-yl)amino)methyl)phenyl)acetamide], with 164 nM; and `Cc1cc(-c2ncc(NCc3cnc4ccccc4c3)cc2-c2ccc3ncsc3c2)ccc1F` [compound 339, 5-(Benzo[d]thiazol-6-yl)-6-(4-fluoro-3-methylphenyl)-N-(quinolin-3-ylmethyl)pyridin-3-amine], with 590 nM; and `Cc1cc(-c2ncccc2-c2ccc3ncn(C)c(=O)c3c2)ccc1F` [compound 340, 6-(2-(4-Fluoro-3-methylphenyl)pyridin-3-yl)-3-methylquinazolin-4(3H)-one], with 464 nM.
The figure for `Cc1cccc(-c2ncccc2-c2ccc3ncn(C)c(=O)c3c2)c1` [compound 341, 3-Methyl-6-(2-(m-tolyl)pyridin-3-yl)quinazolin-4(3H)-one] is 260 nM.
Take `Cn1cnc2ccc(-c3cccnc3-c3cccc(C4CC4)c3)cc2c1=O` [compound 342, 6-(2-(3-Cyclopropylphenyl)pyridin-3-yl)-3-methylquinazolin-4(3H)-one]: the IC50 was found to be 106 nM.
Then `Cc1cc(-c2ncc(-c3cccc(O)c3)cc2-c2ccc3ncsc3c2)ccc1F` [compound 343, 3-(5-(Benzo[d]thiazol-6-yl)-6-(4-fluoro-3-methylphenyl)pyridin-3-yl)phenol], with 2640 nM.
Then `Cc1cc(-c2ncc(-c3cn[nH]c3)cc2-c2ccc3ncsc3c2)ccc1F` [compound 345, 6-(2-(4-Fluoro-3-methylphenyl)-5-(1H-pyrazol-4-yl)pyridin-3-yl)benzo[d]thiazole], with 4830 nM; and `Cc1cc(-c2ncccc2-c2ccc3[nH]cnc(=O)c3c2)ccc1F` [compound 346, 6-(2-(4-Fluoro-3-methylphenyl)pyridin-3-yl)quinazolin-4(1H)-one], with 193 nM; and `Cc1cc(-c2ncc(-c3cccc(S(N)(=O)=O)c3)cc2-c2ccc3ncsc3c2)ccc1F` [compound 347, 3-(5-(Benzo[d]thiazol-6-yl)-6-(4-fluoro-3-methylphenyl)pyridin-3-yl)benzenesulfonamide], with 1490 nM.
On to `Cc1cc(-c2ncccc2-c2ccc3c(=O)nc[nH]c3c2)ccc1F` [compound 348, 7-(2-(4-Fluoro-3-methylphenyl)pyridin-3-yl)quinazolin-4(1H)-one], for which the IC50 stood at 1300 nM.
Then `Cc1cccc(-c2ncccc2-c2ccc3c(=O)nc[nH]c3c2)c1` [compound 349, 7-(2-(m-Tolyl)pyridin-3-yl)quinazolin-4(1H)-one], with 1010 nM; and `O=c1nc[nH]c2cc(-c3cccnc3-c3cccc(C4CC4)c3)ccc12` [compound 350, 7-(2-(3-cyclopropylphenyl)pyridin-3-yl)quinazolin-4(1H)-one], with 347 nM; and `COc1cc(CNc2cnc(-c3ccc(F)c(C)c3)c(-c3ccc4ncsc4c3)c2)ccc1O` [compound 351, 4-(((5-(Benzo[d]thiazol-6-yl)-6-(4-fluoro-3-methylphenyl)pyridin-3-yl)amino)methyl)-2-methoxyphenol], with 215 nM.
Turning to `COc1ccc(CNc2cnc(-c3ccc(F)c(C)c3)c(-c3ccc4ncsc4c3)c2)cc1OCC(N)=O` [compound 352, 2-(5-(((5-(Benzo[d]thiazol-6-yl)-6-(4-fluoro-3-methylphenyl)pyridin-3-yl)amino)methyl)-2-methoxyphenoxy)acetamide], the IC50 was 307 nM.
The figure for `Cc1cc(-c2ncc(NCc3ccc(N4CCOCC4)cc3)cc2-c2ccc3ncsc3c2)ccc1F` [compound 353, 5-(Benzo[d]thiazol-6-yl)-6-(4-fluoro-3-methylphenyl)-N-(4-morpholinobenzyl)pyridin-3-amine] is 689 nM.
